The record followed here is US9067935B2 (Janssen Pharmaceutica, NV, priority 2010, dated 2015).

Where two headings read alike, the source gives them in different places.

The assay has as its target canine TRPM8 (Canis lupus familiaris, UniProt Q1A7N1). Nature of the assay: In Vitro Canine TRPM8 Functional Assay (intracellular Ca2+ fluorescence, icilin challenge). Format: cell-based. The conditions noted are these: for IC50: icilin at ~80% maximal response. The procedure:
The functional activity of compounds of the formula (I) was determined by measuring changes in intracellular calcium concentration using a Ca^2+-sensitive fluorescent dye. The changes in fluorescent signal were monitored by a fluorescence plate reader, either a FLIPR™ (Molecular Devices) or FDSS (Hamamatsu).
At 24 hrs prior to assay, HEK293 cells stably expressing canine TRPM8 were seeded in culture medium in black wall, clear-base poly-D-lysine coated 384-well plates (BD Biosciences, NJ, USA) and grown overnight in 5% CO2 at 37° C. On assay day, growth media was removed and cells were loaded with Calcium 3 Dye (Molecular Devices) for 35 min at 37° C., under 5% CO2 and then for 25 min at room temperature and atmosphere. Subsequently, cells were tested for agonist-induced increases in intracellular Ca^2+ levels using FLIPR™ or FDSS. Cells were challenged with a compound of the Formula (I) (at varying concentrations) and intracellular Ca^2+ was measured for 5 min prior to the addition of icilin to all wells to achieve a final concentration that produces approximately an 80% maximal response. EC50 or IC50 values for compounds of the present invention were determined from eight-point dose-response studies. Curves were generated using the average of quadruplicate wells for each data point.

Setting [1] is: HEK293, read-out: % Inh (%) @ 0.2 μM.
Where [2] appears, read: HEK293 cells stably expressing canine TRPM8.
Where [3] appears, read: HEK293, @ 0.2 μM, HEK293 cells stably expressing canine TRPM8, read-out: % Inh (%) @ 0.2 μM.

Sequence of canine TRPM8 (Q1A7N1 1-1104): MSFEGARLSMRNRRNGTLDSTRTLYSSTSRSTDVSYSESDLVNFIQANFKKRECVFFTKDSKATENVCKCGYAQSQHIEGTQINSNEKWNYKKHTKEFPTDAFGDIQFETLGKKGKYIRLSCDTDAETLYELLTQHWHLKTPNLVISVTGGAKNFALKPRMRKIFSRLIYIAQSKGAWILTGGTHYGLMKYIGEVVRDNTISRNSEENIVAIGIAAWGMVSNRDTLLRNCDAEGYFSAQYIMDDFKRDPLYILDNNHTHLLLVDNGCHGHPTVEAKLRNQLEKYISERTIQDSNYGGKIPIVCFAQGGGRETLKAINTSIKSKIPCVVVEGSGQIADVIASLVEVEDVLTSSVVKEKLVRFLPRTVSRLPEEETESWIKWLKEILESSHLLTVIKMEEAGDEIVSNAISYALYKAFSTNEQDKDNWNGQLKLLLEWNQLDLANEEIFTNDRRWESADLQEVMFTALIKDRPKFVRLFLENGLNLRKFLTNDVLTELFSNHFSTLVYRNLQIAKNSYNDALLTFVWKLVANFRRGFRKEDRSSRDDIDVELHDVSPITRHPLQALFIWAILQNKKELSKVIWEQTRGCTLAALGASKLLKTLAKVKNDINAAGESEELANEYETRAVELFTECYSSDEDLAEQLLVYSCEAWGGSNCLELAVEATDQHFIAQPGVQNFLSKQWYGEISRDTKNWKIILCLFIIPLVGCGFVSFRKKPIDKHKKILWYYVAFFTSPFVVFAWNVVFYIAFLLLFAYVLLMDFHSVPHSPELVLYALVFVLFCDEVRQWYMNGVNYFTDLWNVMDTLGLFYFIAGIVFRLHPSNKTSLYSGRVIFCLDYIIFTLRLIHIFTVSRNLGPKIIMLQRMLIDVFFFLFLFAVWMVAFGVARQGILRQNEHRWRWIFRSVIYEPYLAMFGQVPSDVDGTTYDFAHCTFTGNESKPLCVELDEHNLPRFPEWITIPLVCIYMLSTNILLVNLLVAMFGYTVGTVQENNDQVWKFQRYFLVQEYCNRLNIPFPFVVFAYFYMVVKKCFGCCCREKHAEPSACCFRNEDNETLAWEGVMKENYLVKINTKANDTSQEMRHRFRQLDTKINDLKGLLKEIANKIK

Take `Cc1c(N(Cc2ccc(OC(F)(F)F)cc2)S(=O)(=O)c2ccc(C(=O)O)cc2)nc2ccc(F)cn12` [Compound 120, Sodium 4-(N-(6-fluoro-3-methylimidazo[1,2-a]pyridin-2-yl)-N-(4-(trifluoromethoxy)benzyl)sulfamoyl)benzoate]: under setting [1], the inhibition at 0.2 µM worked out at 102%. Also, half-maximal inhibition under setting [2] (IC50) was put at 0.0122 µM.

In the case of `O=S(=O)(c1ccccc1)N(Cc1ccc(C(F)(F)F)cc1)c1nc2ccccn2c1C1CC1` [Compound 72], under setting [3], the inhibition at 0.2 µM was 101%. Moreover, under setting [2], 0.0113 µM corresponded to half-maximal inhibition (IC50).

In the case of `O=S(=O)(c1ccccc1)N(Cc1ccc(C(F)(F)F)c(F)c1)c1nc2ccccn2c1C1CC1` [Compound 70], the inhibition at 0.2 µM under setting [3] was 101%. Besides, the IC50 (as a rule, the concentration needed to halve the response being measured) under setting [2] turned out to be 0.00821 µM.

Turning to `O=S(=O)(c1ccccc1)N(Cc1ccc(F)c(C(F)(F)F)c1)c1cn2ccccc2n1` [Compound 13], 0.0489 µM corresponded to half-maximal inhibition under setting [2] (IC50).

As for `Cc1cccn2c(C)c(N(Cc3ccc(F)c(C(F)(F)F)c3)S(C)(=O)=O)nc12` [Compound 35], the inhibition at 0.2 µM under setting [3] was 74%. Also, 0.0449 µM corresponded to half-maximal inhibition under setting [2] (IC50).

Consider `O=S(=O)(c1ccc(N2CCOCC2)nc1)N(Cc1ccc(C(F)(F)F)cc1)c1nc2ccccn2c1Cl` [Compound 93], for which the inhibition at 0.2 µM under setting [3] came to 98%. Also, under setting [2], the midpoint of inhibition, the IC50, lay at 0.0269 µM.

Regarding `O=C(O)c1ccc(S(=O)(=O)N(Cc2ccc(OC(F)(F)F)cc2)c2nc3ccccn3c2Cl)cc1` [Compound 6], the inhibition at 0.2 µM under setting [1] was determined as 102%.

For the compound `Cc1cccn2c(C)c(N(Cc3ccc(OC(F)(F)F)cc3)S(=O)(=O)c3ccc(C(=O)[O-])cc3)nc12.[Na+]` [Compound 117], under setting [2], the “% Inh (%) @ 0.2 μM” value is on record as 101% and the IC50 was 0.0135 µM.

As to `CC(C)c1c(N(Cc2ccc(C(F)(F)F)c(F)c2)S(=O)(=O)c2ccccc2)nc2ccccn12` [Compound 51], the inhibition at 0.2 µM under setting [3] was determined as 101%. The compound further had an IC50 under setting [2] of 0.00656 µM.

Consider `CCc1c(N(CCCCC(F)(F)F)S(=O)(=O)c2ccccc2)nc2c(C(F)(F)F)cccn12` [Compound 64], for which the inhibition at 0.2 µM under setting [3] was found to be 99%. The 50% inhibitory concentration (IC50) under setting [2] was 0.022 µM.

Regarding `CCc1c(N(Cc2ccc(C(F)(F)F)c(F)c2)S(=O)(=O)c2ccc(-n3cccn3)cc2)nc2ccc(Cl)cn12` [Compound 88], the inhibition at 0.2 µM under setting [3] worked out at 100%. Moreover, the midpoint of inhibition under setting [2], the IC50, lay at 0.0414 µM.

For `O=S(=O)(c1ccc(N2CCOCC2)nc1)N(Cc1ccc(OC(F)(F)F)cc1)c1nc2ccccn2c1Br` [Compound 84], the inhibition at 0.2 µM under setting [3] turned out to be 100%. The compound further displayed an IC50 under setting [2] of 0.0115 µM.

In the case of `CCc1c(N(Cc2ccc(F)c(C(F)(F)F)c2)S(=O)(=O)c2ccccc2)nc2ccc(Cl)cn12` [Compound 82], the inhibition at 0.2 µM under setting [3] was 100%. For the same compound, under setting [2], the IC50 was 0.0142 µM.

As for `Cc1c(N(Cc2ccc(C(F)(F)F)cc2)S(=O)(=O)c2ccccc2)nc2ccc(Cl)cn12` [Compound 43], the inhibition at 0.2 µM under setting [3] turned out to be 99%. Under setting [2], this compound registered an IC50 of 0.0243 µM.

Turning to `Cc1c(N(Cc2cccc(C(F)(F)F)c2)S(=O)(=O)c2ccccc2)nc2ccc(Cl)cn12` [Compound 44], the inhibition at 0.2 µM under setting [3] was determined as 100%. The 50% inhibitory concentration (IC50) under setting [2] was 0.0183 µM.

Take `O=S(=O)(c1ccccc1)N(Cc1ccc(F)cc1)c1nc2ccc(Cl)cn2c1Cl` [Compound 16]: the IC50 under setting [2] is 0.072 µM. This lies in the double-digit nanomolar range.

As for `O=S(=O)(c1ccc(-n2cccn2)cc1)N(Cc1ccc(OC(F)(F)F)cc1)c1nc2ccccn2c1Cl` [Compound 97], the inhibition at 0.2 µM under setting [3] was 99%. Besides, under setting [2], the IC50 came out at 0.00848 µM.

Consider `Cc1cccc2nc(N(Cc3ccc(F)c(C(F)(F)F)c3)S(=O)(=O)c3ccccc3)c(C)n12` [Compound 48], for which the inhibition at 0.2 µM under setting [3] is 99%. Further, the IC50 under setting [2] was 0.011 µM.

On to `Cc1c(N(Cc2ccc(C(F)(F)F)c(F)c2)S(=O)(=O)c2ccc(-n3cccn3)cc2)nc2ccc(Cl)cn12` [Compound 103], for which the inhibition at 0.2 µM under setting [3] was 98%. Moreover, the half-inhibitory concentration (IC50) under setting [2] worked out at 0.0245 µM.

As to `Cc1c(N(Cc2ccc(F)c(C(F)(F)F)c2)S(=O)(=O)c2ccccc2)nc2ccc(Cl)cn12` [Compound 37], the inhibition at 0.2 µM under setting [3] was determined as 100%. The same compound yielded an IC50 under setting [2] of 0.0294 µM.

Consider `CCc1c(N(Cc2ccc(C(F)(F)F)c(F)c2)S(=O)(=O)c2ccccc2)nc2c(C(F)(F)F)cccn12` [Compound 56], for which the inhibition at 0.2 µM under setting [3] came to 99%. The same compound yielded an IC50 under setting [2] of 0.065 µM.

Take `COC(=O)c1ccc(S(=O)(=O)N(Cc2ccc(OC(F)(F)F)cc2)c2nc3ccccn3c2Cl)cc1` [Compound 116]: under setting [3], the inhibition at 0.2 µM came out at 102%. Under setting [2], the IC50 came out at 0.00529 µM.

On to `CCc1c(N(CCC2CC2)S(=O)(=O)c2ccccc2)nc2c(C(F)(F)F)cccn12` [Compound 63, N-(2-Cyclopropylethyl)-N-(3-ethyl-8-trifluoromethylimidazo[1,2-a]pyridin-2-yl)benzenesulfonamide], for which the inhibition at 0.2 µM under setting [3] came out at 99%. The IC50 under setting [2] was 0.0241 µM.

For `O=S(=O)(c1ccccc1)N(Cc1ccc(F)c(F)c1)c1nc2ccc(Cl)cn2c1Cl` [Compound 18], inhibition under setting [2] was half-maximal at 0.0786 µM (IC50).

Consider `Cc1ccc2nc(N(Cc3ccc(OC(F)(F)F)cc3)S(=O)(=O)c3ccccc3)c(C)n2c1` [Compound 39], for which the inhibition at 0.2 µM under setting [3] is 99%. Further, under setting [2], 0.0289 µM corresponded to half-maximal inhibition (IC50).

As for `Cc1c(N(Cc2ccc(C(F)(F)F)c(F)c2)S(=O)(=O)c2ccccc2)nc2ccc(C(F)(F)F)cn12` [Compound 100, N-(3-Fluoro-4-trifluoromethylbenzyl)-N-(3-methyl-6-trifluoromethylimidazo[1,2-a]pyridin-2-yl)benzenesulfonamide], the inhibition at 0.2 µM under setting [3] stood at 31%.

On to `Cc1c(N(Cc2ccc(OC(F)(F)F)cc2)S(=O)(=O)c2ccc(C(=O)O)cc2)nc2ccc(Cl)cn12` [Compound 113, Sodium 4-(N-(6-Chloro-3-methylimidazo[1,2-a]pyridin-2-yl)-N-(4-trifluoromethoxybenzyl)sulfamoyl)benzoate], for which the inhibition at 0.2 µM under setting [1] turned out to be 102%. This compound came in with an IC50 under setting [2] of 0.0146 µM.

Regarding `Cc1c(N(Cc2ccc(OC(F)(F)F)cc2)S(=O)(=O)c2ccccc2)nc2ccc(Cl)cn12` [Compound 36], the inhibition at 0.2 µM under setting [3] is 100%. This compound also displayed an IC50 under setting [2] of 0.0225 µM.

For the compound `Cc1ccc2nc(N(Cc3ccc(F)c(C(F)(F)F)c3)S(=O)(=O)c3ccccc3)c(C)n2c1` [Compound 40], the inhibition at 0.2 µM under setting [3] is 100%. Moreover, the IC50 under setting [2] was 0.0222 µM.

Turning to `Cc1c(N(Cc2ccc(F)c(C(F)(F)F)c2)S(=O)(=O)c2ccc(C(=O)O)cc2)nc2ccc(F)cn12` [Compound 121, Sodium 4-(N-(6-fluoro-3-methylimidazo[1,2-a]pyridin-2-yl)-N-(4-fluoro-3-(trifluoromethyl)benzyl)sulfamoyl)benzoate], the inhibition at 0.2 µM under setting [1] turned out to be 101%. In addition, the half-maximal inhibitory concentration (IC50) under setting [2] worked out at 0.0328 µM.

`CC(C)c1c(N(Cc2ccc(F)c(C(F)(F)F)c2)S(=O)(=O)c2ccccc2)nc2ccccn12` [Compound 50]: under setting [3], the inhibition at 0.2 µM came out at 101%. The compound also returned an IC50 under setting [2] of 0.0123 µM.

Turning to `CCc1c(N(Cc2ccc(C(F)(F)F)c(F)c2)S(=O)(=O)c2ccccc2)nc2cccc(C)n12` [Compound 80], the inhibition at 0.2 µM under setting [3] amounted to 99%. The IC50 under setting [2] was found to be 0.0121 µM.

Take `Cc1c(N(Cc2ccc(OC(F)(F)F)cc2)S(=O)(=O)c2ccc(C(=O)O)cc2)nc2c(F)cccn12` [Compound 122]: under setting [2], the “% Inh (%) @ 0.2 μM” value amounted to 99% and the IC50 was 0.00403 µM.

Take `COC(=O)c1ccc(S(=O)(=O)N(Cc2ccc(OC(F)(F)F)cc2)c2nc3ccc(Cl)cn3c2C)cc1` [Compound 110, Methyl 4-(N-(6-Chloro-3-methylimidazo[1,2-a]pyridin-2-yl)-N-(4-trifluoromethoxybenzyl)sulfamoyl)benzoate]: the inhibition at 0.2 µM under setting [3] turned out to be 82%. Besides, under setting [2], it took 0.0572 µM to reach half-maximal inhibition (IC50).

Take `Cc1ccn2c(C)c(N(Cc3ccc(OC(F)(F)F)cc3)S(=O)(=O)c3ccccc3)nc2c1` [Compound 26]: the inhibition at 0.2 µM under setting [3] came out at 100%. The same compound yielded an IC50 under setting [2] of 0.0101 µM.

As to `O=S(=O)(c1ccccc1)N(Cc1ccc(OC(F)(F)F)cc1)c1nc2ccccn2c1C1CC1` [Compound 71], the inhibition at 0.2 µM under setting [3] was 101%. This compound also showed an IC50 under setting [2] of 0.0215 µM.

As for `Cc1c(N(Cc2ccc(F)c(C(F)(F)F)c2)S(=O)(=O)c2ccc(-n3cccn3)cc2)nc2ccc(Cl)cn12` [Compound 102, N-(6-chloro-3-methylimidazo[1,2-a]pyridin-2-yl)-N-(4-fluoro-3-trifluoromethylbenzyl)-4-(1H-pyrazol-1-yl)benzenesulfonamide], the inhibition at 0.2 µM under setting [3] was 100%. This compound came in with an IC50 under setting [2] of 0.0218 µM.

`Cc1c(N(Cc2ccc(F)c(C(F)(F)F)c2)S(=O)(=O)c2ccc(C(=O)O)cc2)nc2ccc(Cl)cn12` [Compound 115]: under setting [1], the inhibition at 0.2 µM worked out at 96%.

`O=S(=O)(c1ccc(N2CCOCC2)nc1)N(Cc1ccc(F)c(C(F)(F)F)c1)c1nc2ccc(Cl)cn2c1Cl` [Compound 78]: the inhibition at 0.2 µM under setting [3] was 26%.

Compound `Cc1c(N(Cc2ccc(OC(F)(F)F)cc2)S(=O)(=O)c2ccccc2)nc2ccc(F)cn12` [Compound 19] gave an IC50 under setting [2] of 0.0144 µM. In other words, the double-digit nanomolar range.

With `O=S(=O)(c1ccccc1)N(Cc1ccc(C(F)(F)F)c(F)c1)c1nc2ccc(Cl)cn2c1Cl` [Compound 29], the inhibition at 0.2 µM under setting [3] turned out to be 90%. For the same compound, the IC50 under setting [2] worked out at 0.0322 µM.

Turning to `Cc1c(N(Cc2ccc(OC(F)(F)F)cc2)S(=O)(=O)c2ccccc2)nc2ccccn12` [Compound 11], under setting [2], the IC50 came out at 0.00568 µM.
